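How tested: cells in 96-well plates exposed to compound for 48 hours at five concentrations. Abbreviation: GI50, concentration required for 50% inhibition of growth.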 The source made the active and inactive calls. Rule as the data show it: active = GI50 up to about 1.1 µM and inactive = higher.
What was measured:
Test in all cases: inhibition of tumour cell growth, NCI panel, 48 h
[1] = test system: 786-0
[2] = test system: A498
[3] = test system: A549
[4] = test system: ACHN
[5] = test system: CAKI-1
[6] = test system: CCRF-CEM
[7] = test system: COLO 205
[8] = test system: DLD-1
[9] = test system: DMS-114
[10] = test system: DMS-273
[11] = test system: EKVX
[12] = test system: HCC 2998
[13] = test system: HCT-116
[14] = test system: HCT-15
[15] = test system: HL-60
[16] = test system: HOP-62
[17] = test system: HOP-92
[18] = test system: HT-29
[19] = test system: IGROV-1
[20] = test system: K562
[21] = test system: KM-20L2
[22] = test system: KM12
[23] = test system: LOX IMVI
[24] = test system: LXFL 529
[25] = test system: M14
[26] = test system: M19-MEL
[27] = test system: MOLT-4
[28] = test system: Malme-3M
[29] = test system: NCI-H226
[30] = test system: NCI-H23
[31] = test system: NCI-H460
[32] = test system: NCI-H522
[33] = test system: OVCAR-3
[34] = test system: OVCAR-4
[35] = test system: OVCAR-5
[36] = test system: OVCAR-8
[37] = test system: RPMI-8226
[38] = test system: RXF 393
[39] = test system: RXF 631
[40] = test system: SF-268
[41] = test system: SF-295
[42] = test system: SF-539
[43] = test system: SK-MEL-28
[44] = test system: SK-MEL-2
[45] = test system: SK-MEL-5
[46] = test system: SK-OV-3
[47] = test system: SN12C
[48] = test system: SNB-19
[49] = test system: SNB-75
[50] = test system: SR
[51] = test system: SW-620
[52] = test system: TK-10
[53] = test system: U-251
[54] = test system: UACC-257
[55] = test system: UACC-62
[56] = test system: UO-31
[57] = test system: XF498
[58] = test system: HOP-18
[59] = test system: SNB-78

O=C1OC(c2ccccc2)(c2ccccc2)c2ccc3ccc(F)cc3c21
GI50 [1]: > 100 µM (inactive)
GI50 [2]: > 100 µM (inactive)
GI50 [3]: 19.3 µM (inactive)
GI50 [4]: 49.8 µM (inactive)
GI50 [5]: 33.3 µM (inactive)
GI50 [6]: 31.3 µM (inactive)
GI50 [7]: > 100 µM (inactive)
GI50 [8]: > 100 µM (inactive)
GI50 [9]: 9.23 µM (inactive)
GI50 [10]: 7.21 µM (inactive)
GI50 [11]: 53.3 µM (inactive)
GI50 [12]: 37.2 µM (inactive)
GI50 [13]: 27 µM (inactive)
GI50 [14]: 35.5 µM
GI50 [15]: 9.4 µM (inactive)
GI50 [16]: > 100 µM (inactive)
GI50 [17]: 2.66 µM (inactive)
GI50 [18]: 13.6 µM (inactive)
GI50 [19]: > 100 µM (inactive)
GI50 [20]: 6.28 µM (inactive)
GI50 [21]: 21.8 µM (inactive)
GI50 [22]: > 100 µM (inactive)
GI50 [23]: 60.3 µM (inactive)
GI50 [24]: > 100 µM (inactive)
GI50 [25]: > 100 µM (inactive)
GI50 [26]: 20.7 µM (inactive)
GI50 [27]: > 100 µM (inactive)
GI50 [28]: > 100 µM (inactive)
GI50 [29]: > 100 µM (inactive)
GI50 [30]: 52.8 µM (inactive)
GI50 [31]: > 100 µM (inactive)
GI50 [32]: 51.1 µM (inactive)
GI50 [33]: 68.7 µM (inactive)
GI50 [34]: > 100 µM (inactive)
GI50 [35]: > 100 µM (inactive)
GI50 [36]: > 100 µM (inactive)
GI50 [37]: > 100 µM (inactive)
GI50 [38]: > 100 µM (inactive)
GI50 [39]: 51.4 µM (inactive)
GI50 [40]: > 100 µM (inactive)
GI50 [41]: 13 µM (inactive)
GI50 [42]: > 100 µM (inactive)
GI50 [43]: > 100 µM (inactive)
GI50 [44]: > 100 µM (inactive)
GI50 [45]: 20 µM (inactive)
GI50 [46]: > 100 µM (inactive)
GI50 [47]: > 100 µM (inactive)
GI50 [48]: > 100 µM (inactive)
GI50 [49]: 37.6 µM (inactive)
GI50 [50]: 10.7 µM (inactive)
GI50 [51]: 23.9 µM (inactive)
GI50 [52]: > 100 µM (inactive)
GI50 [53]: 77.1 µM (inactive)
GI50 [54]: 37.1 µM (inactive)
GI50 [55]: 26.9 µM (inactive)
GI50 [56]: 79.4 µM (inactive)
GI50 [57]: > 100 µM (inactive)

C=C(C=O)[C@@H]1C2OC(=O)C(=C)[C@@H]2CC(O)[C@@]1(C)CC (some centres undefined)
GI50 [1]: 3.32 µM (inactive)
GI50 [2]: 17.1 µM (inactive)
GI50 [3]: 32.8 µM (inactive)
GI50 [4]: 13.7 µM (inactive)
GI50 [5]: 9.38 µM (inactive)
GI50 [6]: 2.08 µM (inactive)
GI50 [7]: 5.66 µM (inactive)
GI50 [8]: 2.75 µM (inactive)
GI50 [9]: 14.8 µM (inactive)
GI50 [11]: 18.2 µM (inactive)
GI50 [12]: 16.6 µM (inactive)
GI50 [13]: 3.78 µM (inactive)
GI50 [14]: 6.22 µM
GI50 [15]: 2.25 µM (inactive)
GI50 [58]: 26.1 µM (inactive)
GI50 [16]: 50.2 µM (inactive)
GI50 [17]: 2.33 µM (inactive)
GI50 [18]: 6.75 µM (inactive)
GI50 [19]: 10.7 µM (inactive)
GI50 [20]: 3.27 µM (inactive)
GI50 [21]: 12.2 µM (inactive)
GI50 [22]: 13.1 µM (inactive)
GI50 [23]: 15.8 µM (inactive)
GI50 [24]: 3.08 µM (inactive)
GI50 [25]: 4.83 µM (inactive)
GI50 [26]: 5.48 µM (inactive)
GI50 [27]: 2.48 µM (inactive)
GI50 [28]: 6.21 µM (inactive)
GI50 [29]: 32 µM (inactive)
GI50 [30]: 7.23 µM (inactive)
GI50 [31]: 21.2 µM (inactive)
GI50 [32]: 1.87 µM (inactive)
GI50 [33]: 6.71 µM (inactive)
GI50 [34]: 11.5 µM (inactive)
GI50 [35]: 17.8 µM (inactive)
GI50 [36]: 4.37 µM (inactive)
GI50 [37]: 2.93 µM (inactive)
GI50 [38]: 2.11 µM (inactive)
GI50 [39]: 19.2 µM (inactive)
GI50 [40]: 23.8 µM (inactive)
GI50 [41]: 22.4 µM (inactive)
GI50 [42]: 9.29 µM (inactive)
GI50 [43]: 3.83 µM (inactive)
GI50 [44]: 13.2 µM (inactive)
GI50 [45]: 6.78 µM (inactive)
GI50 [46]: > 60.5 µM (inactive)
GI50 [47]: 10.1 µM (inactive)
GI50 [48]: 45.2 µM (inactive)
GI50 [49]: > 100 µM (inactive)
GI50 [59]: 6.17 µM (inactive)
GI50 [50]: 3.4 µM (inactive)
GI50 [51]: 3.16 µM (inactive)
GI50 [52]: 15.7 µM (inactive)
GI50 [53]: 11.7 µM (inactive)
GI50 [54]: 11.9 µM (inactive)
GI50 [55]: 4.12 µM (inactive)
GI50 [56]: 21.3 µM (inactive)

— ChEMBL document CHEMBL1201862, “PubChem BioAssay data set” (2004)
